In patent US12121540B2, “CBL inhibitors and compositions for use in adoptive cell therapy” (Nurix Therapeutics, Inc., priority 2019, dated 2024):

Tests used:
CD4/8+ T cells = experiment: Intracellular IFN-γ after PMA/ionomycin stimulation of expanded T cells; format: cell-based, human; conditions: IL-2 and Cbl inhibitor expanded T cells; PMA/ionomycin 6 h
Protocol: T cell activity was determined by analysis of cytokine secretion. To investigate whether these expanded T cells are capable of responding to extracellular stimulation, T cells were stimulated with 25 ng/mL phorbol myristate acetate (PMA) and 0.5 μM ionomycin. After 90 min of stimulation, monensin, 1:50, (GolgiStop, BD Biosciences) was added. After 6 h, cells were stained for surface expression of CD4+, CD8+, CD45RA+, CD95+, CCR7+, CD62L+, and subsequently, fixed, permeabilized and stained for intracellular cytokine, IFN-γ.

[1] = test system: human tumor-infiltrating lymphocytes (TIL); experiment: Flow cytometry immunophenotyping of expanded TIL; format: cell-based; conditions: for CD4 TCM CD62L+ CCR7+, percentage of total TIL cell number / CD4 TEM CD62L− CCR7−, percentage of total TIL cell number / CD8 TCM CD62L+ CCR7−, percentage of total TIL cell number / CD8 TEM CD62L− CCR7−, percentage of total TIL cell number: TIL1 population, day 28
Protocol: The plates were placed in a humidified 37° C. incubator with 5% CO2. Half of the medium was replaced every two days after culture initiation. […] Subsequently, half the media was replaced thrice weekly, cultures were split to maintain a cell density of 1×10^6 cells/mL. […] Mitochondrial markers including, Mitotracker, Mitoprobe, and 2-NBDG may also be used to assess differentiation and/or activation of cells.
(§1) T lymphocytes were defined based on lineage and differentiation marker expression according to the developmental model (Restifo, Blood, 124:476-477, 2014), as shown in Table 4.

OT-1 cells [2] = experiment: FACS of transferred OT-1 cells in blood and tumor of E.G7-OVA mice; format: in vivo, mouse
Protocol: Dead cells were removed (Miltenyi Biotec Cat #130-090-101) prior to transfer in vivo to monitor their trafficking and function in an EG.7 lymphoma model, which expresses the OVA antigen. Approximately five million cells per mouse were transferred to mice having an average tumor burden of about 70 mm^3. Following in vivo transfer of the OT-1 cells, antitumor response was monitored over time and the quality and quantity of immune response were assessed at various time points.
(§2) The expanded OT-1 cells were characterized by FACS analysis and transferred into E.G7-OVA mice, which bear ovalbumin (OVA) expressing tumors. Following in vivo transfer of expanded OT-1 cells, antitumor response was monitored over time and the quality and quantity of immune response was assessed at various time points. Analysis included FACS analysis on blood, tumor, and spleen samples. Analysis also included re-stimulation of splenocytes with OVA Class I peptide to evaluate the multifunctionality of the antigen-specific effector T cells.
On Day 0, E.G7-OVA cells were implanted into each mouse. On Day 5, approximately 5×10^6 in vitro expanded OT-1 cells were injected into the tail of each mouse. On Day 9, blood was analyzed by FACS. On Day 14, blood, tumor and spleen samples were analyzed by FACS. On Day 27, blood was analyzed by FACS. Tumor volume was measured approximately every five days through about 50 days post implant.
OT-1 cells were expanded according to the previous examples and administered to E.G7-OVA mice, which bear ovalbumin (OVA) expressing tumors. The cells were evaluated for their in vivo properties.
Expanded OT-1 cells were assessed in blood 4 days and 22 days after transfer.
Expanded OT-1 cells were assessed in tumors 4 days after transfer.

OT-1 cells [3] = experiment: Re-stimulation of harvested splenocytes with OVA Class I peptide; format: cell-based, mouse
Protocol: as §2
Expanded OT-1 cells were assessed from splenocytes 11 days after transfer. Harvested splenocytes were re-stimulated with OVA Class I peptide for 72 hours.
Expanded OT-1 cells were assessed from splenocytes 11 days after transfer. Harvested splenocytes were re-stimulated with OVA Class I peptide for 4 hours.
Expanded OT-1 cells were assessed from splenocytes 11 days after transfer. Harvested splenocytes were re-stimulated with OVA Class I peptide for 24 hours.

[4] = test system: human T cells from peripheral blood mononuclear cells; experiment: Flow cytometry immunophenotyping of T cells expanded from donor PBMC; format: cell-based; conditions: for CD4 TCM, percentage of total cell number / CD4 TEM, percentage of total cell number / CD4 TSCM, percentage of total cell number / CD8 TCM, percentage of total cell number / CD8 TEM, percentage of total cell number / CD8 TSCM, percentage of total cell number: donor PBMC, day 11
Source text: At day eleven, cells were pooled and counted, and immunophenotyped at day 11 by flow cytometry by measuring expression of lineage (CD4, CD8) and differentiation (including CD45RA, CD45RO, CD95, CCR7, CD62L, TCF1, PD-1, TIM3, LAG3) markers.
as §1

[5] = Cbl inhibitor expanded, 4 hours restimulation

C[C@@H]1CN(Cc2cc3c(c(C(F)(F)F)c2)CN(c2cccc(C4(Cc5nncn5C)COC4)c2)C3=O)CCC1(F)F [compound 103]
CD4/8+ T cells capable of producing IFN-γ (CD4/8+ T cells): greater than 85%
CD4 TCM CD62L+ CCR7+, percentage of total TIL cell number ([1]; 0.1 μM Cbl-i): 2.8%
CD4 TEM CD62L− CCR7−, percentage of total TIL cell number ([1]; 0.1 μM Cbl-i): 67.2%
CD8 TCM CD62L+ CCR7−, percentage of total TIL cell number ([1]; 0.1 μM Cbl-i): 19.5%
CD8 TEM CD62L− CCR7−, percentage of total TIL cell number ([1]; 0.1 μM Cbl-i): 37.2%
CD4 TCM CD62L+ CCR7+, percentage of total TIL cell number ([1]; 1.0 μM Cbl-i): 8.0%
CD4 TEM CD62L− CCR7−, percentage of total TIL cell number ([1]; 1.0 μM Cbl-i): 24.2%
CD8 TCM CD62L+ CCR7−, percentage of total TIL cell number ([1]; 1.0 μM Cbl-i): 20.2%
CD8 TEM CD62L− CCR7−, percentage of total TIL cell number ([1]; 1.0 μM Cbl-i): 15.6%
CD4 TCM CD62L+ CCR7+, percentage of total TIL cell number ([1]; 10 μM Cbl-i): 15.8%
CD4 TEM CD62L− CCR7−, percentage of total TIL cell number ([1]; 10 μM Cbl-i): 66.7%
CD8 TCM CD62L+ CCR7−, percentage of total TIL cell number ([1]; 10 μM Cbl-i): 29.7%
CD8 TEM CD62L− CCR7−, percentage of total TIL cell number ([1]; 10 μM Cbl-i): 13.2%
CD4 TCM CD62L+ CCR7+, percentage of total TIL cell number ([1]; IL-2 + 0.1 μM Cbl-i): 12.1%
CD4 TEM CD62L− CCR7−, percentage of total TIL cell number ([1]; IL-2 + 0.1 μM Cbl-i): 49.3%
CD8 TCM CD62L+ CCR7−, percentage of total TIL cell number ([1]; IL-2 + 0.1 μM Cbl-i): 20.3%
CD8 TEM CD62L− CCR7−, percentage of total TIL cell number ([1]; IL-2 + 0.1 μM Cbl-i): 35.5%
CD4 TCM CD62L+ CCR7+, percentage of total TIL cell number ([1]; IL-2 + 1.0 μM Cbl-i): 15.2%
CD4 TEM CD62L− CCR7−, percentage of total TIL cell number ([1]; IL-2 + 1.0 μM Cbl-i): 57.3%
CD8 TCM CD62L+ CCR7−, percentage of total TIL cell number ([1]; IL-2 + 1.0 μM Cbl-i): 16.5%
CD8 TEM CD62L− CCR7−, percentage of total TIL cell number ([1]; IL-2 + 1.0 μM Cbl-i): 43.3%
CD4 TCM CD62L+ CCR7+, percentage of total TIL cell number ([1]; IL-2 + 10 μM Cbl-i): 0%
CD4 TEM CD62L− CCR7−, percentage of total TIL cell number ([1]; IL-2 + 10 μM Cbl-i): 55.8%
CD8 TCM CD62L+ CCR7−, percentage of total TIL cell number ([1]; IL-2 + 10 μM Cbl-i): 20.5%
CD8 TEM CD62L− CCR7−, percentage of total TIL cell number ([1]; IL-2 + 10 μM Cbl-i): 35.4%
Selective expansion of CD8+ T lymphocytes ([1]; malignant ovarian tumor sample, FIG. 7): selectively expand CD8+ T lymphocytes
Frequency in total CD45+ cells and persistence in blood vs IL-2 alone or anti-CD3 alone (OT-1 cells [2]; Cbl inhibitor expanded, 4 and 22 days after transfer): higher frequency in total CD45+ cells and persisted longer
Tumor infiltration (frequency in total CD45+ cells in tumor) vs IL-2 alone or anti-CD3 alone (OT-1 cells [2]; Cbl inhibitor expanded, 4 days after transfer): increased ability to infiltrate the tumor
OT-1 cells expressing stem markers TCF1+, PD-1+, TIM-3− (OT-1 cells [2]; OT-1 cells expanded with Cbl inhibitor): greater percentage of cells that expressed stem markers
Frequency in total CD45+ cells and persistence in blood (OT-1 cells [2]; expanded with Cbl inhibitor and IL-2, 4 and 22 days after transfer): even higher frequency in total CD45+ cells and higher persistence
Tumor infiltration (frequency in total CD45+ cells in tumor) (OT-1 cells [2]; expanded with Cbl inhibitor and IL-2, 4 days after transfer): highest frequency in total CD45+ cells
Expression of exhaustion markers PD1, TIM3, LAG3 in tumor vs IL-2 alone (OT-1 cells [2]; expanded with Cbl inhibitor or Cbl inhibitor plus IL-2): lower level of expression of exhaustion markers
Exhaustion markers (PD1 and TIM3) in multifunctional cells vs IL-2 alone (OT-1 cells [3]; [5]): lower level of expression of exhaustion markers
Multifunctionality (IFN-gamma and TNF-alpha double positive cells) vs IL-2 alone (OT-1 cells [3]; [5]): comparable multifunctionality
IL-2 production upon restimulation (OT-1 cells [3]; Cbl inhibitor expanded, 24 hours restimulation): increased IL-2 production upon restimulation
Proliferation in response to peptide restimulation vs IL-2 alone (OT-1 cells [3]; Cbl inhibitor expanded, splenocytes 11 days after transfer, 72 hours): superior intrinsic ability to proliferate
Proliferation in response to peptide restimulation (OT-1 cells [3]; expanded with Cbl inhibitor and IL-2, 72 hours): even greater intrinsic ability to proliferate
Percentage of CD8+ cells vs IL-2 alone ([4]; 1 μM Cbl inhibitor alone): higher percentages of CD8+ cells
Percentage of CD8+ cells in culture ([4]; IL-2 in combination with 0.1 or 0.5 μM of Cbl inhibitor): highest percentage of CD8+ cells
CD4 TCM, percentage of total cell number ([4]; 0.1 μM Cbl-i): 53.1%
CD4 TEM, percentage of total cell number ([4]; 0.1 μM Cbl-i): 23.9%
CD4 TSCM, percentage of total cell number ([4]; 0.1 μM Cbl-i): 12%
CD8 TCM, percentage of total cell number ([4]; 0.1 μM Cbl-i): 50.7%
CD8 TEM, percentage of total cell number ([4]; 0.1 μM Cbl-i): 14.2%
CD8 TSCM, percentage of total cell number ([4]; 0.1 μM Cbl-i): 17.1%
CD4 TCM, percentage of total cell number ([4]; 1.0 μM Cbl-i): 55.3%
CD4 TEM, percentage of total cell number ([4]; 1.0 μM Cbl-i): 19.3%
CD4 TSCM, percentage of total cell number ([4]; 1.0 μM Cbl-i): 7.27%
CD8 TCM, percentage of total cell number ([4]; 1.0 μM Cbl-i): 61.1%
CD8 TEM, percentage of total cell number ([4]; 1.0 μM Cbl-i): 12.9%
CD8 TSCM, percentage of total cell number ([4]; 1.0 μM Cbl-i): 7.29%
CD4 TCM, percentage of total cell number ([4]; 10 μM Cbl-i): 47.3%
CD4 TEM, percentage of total cell number ([4]; 10 μM Cbl-i): 23.3%
CD4 TSCM, percentage of total cell number ([4]; 10 μM Cbl-i): 1.37%
CD8 TCM, percentage of total cell number ([4]; 10 μM Cbl-i): 34.2%
CD8 TEM, percentage of total cell number ([4]; 10 μM Cbl-i): 9.23%
CD8 TSCM, percentage of total cell number ([4]; 10 μM Cbl-i): 10.8%
CD4 TCM, percentage of total cell number ([4]; IL-2 + 0.1 μM Cbl-i): 13.9%
CD4 TEM, percentage of total cell number ([4]; IL-2 + 0.1 μM Cbl-i): 29.7%
CD4 TSCM, percentage of total cell number ([4]; IL-2 + 0.1 μM Cbl-i): 8.53%
CD8 TCM, percentage of total cell number ([4]; IL-2 + 0.1 μM Cbl-i): 47.8%
CD8 TEM, percentage of total cell number ([4]; IL-2 + 0.1 μM Cbl-i): 18.3%
CD8 TSCM, percentage of total cell number ([4]; IL-2 + 0.1 μM Cbl-i): 4.2%
CD4 TCM, percentage of total cell number ([4]; IL-2 + 1.0 μM Cbl-i): 16.8%
CD4 TEM, percentage of total cell number ([4]; IL-2 + 1.0 μM Cbl-i): 28.4%
CD4 TSCM, percentage of total cell number ([4]; IL-2 + 1.0 μM Cbl-i): 1.98%
CD8 TCM, percentage of total cell number ([4]; IL-2 + 1.0 μM Cbl-i): 37.8%
CD8 TEM, percentage of total cell number ([4]; IL-2 + 1.0 μM Cbl-i): 41.4%
CD8 TSCM, percentage of total cell number ([4]; IL-2 + 1.0 μM Cbl-i): 0.23%
CD4 TCM, percentage of total cell number ([4]; IL-2 + 10 μM Cbl-i): 24.3%
CD4 TEM, percentage of total cell number ([4]; IL-2 + 10 μM Cbl-i): 25.8%
CD4 TSCM, percentage of total cell number ([4]; IL-2 + 10 μM Cbl-i): 2.69%
CD8 TCM, percentage of total cell number ([4]; IL-2 + 10 μM Cbl-i): 49%
CD8 TEM, percentage of total cell number ([4]; IL-2 + 10 μM Cbl-i): 10.6%
CD8 TSCM, percentage of total cell number ([4]; IL-2 + 10 μM Cbl-i): 9.36%
Selective expansion of CD8+ T lymphocytes ([4]; donor PBMCs, FIGS. 2A and 2B): selectively expand CD8+ T lymphocytes
